Earlier results as cited in article PMC3653137 (Molecular pharmaceutics, 2013).
Residues, ends and D or L forms follow the SMILES beside them.

Tests used:
SK-OV-3 cells = details: [WR]4 alone at similar concentrations
CCRF-CEM cells = details: [WR]4 alone at similar concentrations
HCT-116 cells = details: [WR]4 alone at similar concentrations
BT-20 cells = details: BT-20 human breast carcinoma cells

| fold enhancement of cellular delivery of F′-GpYEEI by the carrier peptide (BT-20 cells) [fold] | Molecule | cytotoxicity in SK-OV-3 cells (SK-OV-3 cells) | cytotoxicity in CCRF-CEM cells (CCRF-CEM cells) | cytotoxicity in HCT-116 cells (HCT-116 cells) |
| --- | --- | --- | --- | --- |
| – | N=C(N)NCCC[C@@H]1NC(=O)[C@H](Cc2c[nH]c3ccccc23)NC(=O)[C@H](CCCNC(=N)N)NC(=O)[C@H](Cc2c[nH]c3ccccc23)NC(=O)[C@H](CCCNC(=N)N)NC(=O)[C@H](Cc2c[nH]c3ccccc23)NC(=O)[C@H](CCCNC(=N)N)NC(=O)[C@H](Cc2c[nH]c3ccccc23)NC1=O [[WR]4] (cyclo(RWRWRWRW)) | not cytotoxic | not cytotoxic | not cytotoxic |
| 10 | Lys-(CH2)11-Arg-(CH2)11-Arg [LPA4] | – | – | – |
